US5928666A, “Crystalline form of estradiol and pharmaceutical formulations comprising same” (Cygnus Inc., priority 1997, dated 1999)

Assays:
[1] = Flux of estradiol from equilibrated acrylate adhesive matrices through a 10 mil Silastic membrane (Example 7, Table 2); assay type: in vitro ADME; conditions: for Flux: 20 wt % acrylate matrix, 10 mil Silastic membrane, 32° C.; for average flux: average from Table 2 data
Procedure: Consequently, Crystal X provides an advantage in the preparation of pharmaceutical formulations comprising Crystal X especially transdermal drug delivery matrices. When Crystal X crystals are prepared in transdernal drug delivery formulations,the inherent increase in activity due to the higher thermodynamic activity of the Crystal X crystal versus E2-HH provides for increased flux. For example, equilibrated matrices containing Crystal X and E2-HH crystals were prepared in substantial accordance with the teaching of Example 7 herein and assayed for permeation through a Silastic membrane.
Measurement of estradiol flux was determined by drug flux through a 10 mil Silastic membrane in a modified Franz diffusion cells in substantial accordance with the following procedure. The adhesive matrix systems were peeled off the polyester release liner and placed on top of the Silastic membrane. Gentle pressure was applied to insure full contact between the drug adhesive layer and membrane. The membrane with the prototype system was then mounted carefully between the donor and the receiver compartments. The receiver compartment was filled nanopure water and the temperature was maintained at 32° C.±1° C. throughout the experimental period. Samples of receiver content was withdrawn and replaced with fresh buffer. Samples were assayed by HPLC.
Membrane flux (mg/cm^2 /hr) was determined by evaluating the cumulative flux of drug through a Silastic membrane over a given period of time and dividing by the time period. After steady state had been established, the flux values corresponding to steady state were averaged to obtain the flux value.
20 wt % acrylate adhesive matrices were prepared in accordance with Example 1. 20 % Crystal X was prepared in accordance with Example 3. The laminates were allowed to equilibrate for a period of 8 weeks to insure complete crystal structureation. Flux was determined as permeation through a 10 mil Silastic membrane as described above. The cumulative release of estradiol into the receiver was determined by HPLC method described above. The average flux over the period was calculated as the cumulative amount of drug in receiver divided by cumulative time.

[2] = cited from earlier work

| Flux ([1]; 2.5 hrs) | Flux ([1]; 8.375 hrs) | Flux ([1]; 17.625 hrs) | Flux ([1]; 27.75 hrs) | average flux [1] | flux value at the end of the flux profile relative to E2-HH ([1]; higher than for E2-HH, 32° C. wet) | SMILES | thermodynamic activity ([1]; versus E2-HH) | blood level in hormone replacement therapy ([2]; level the normal dosage is to produce, hormone replacement therapy) | blood level for treatment of osteoporosis ([2]; level utilized, osteoporosis) |
| --- | --- | --- | --- | --- | --- | --- | --- | --- | --- |
| 0.132 μg/cm^2 /hr | 0.238 μg/cm^2 /hr | 0.216 μg/cm^2 /hr | 0.220 μg/cm^2 /hr | 0.22 μg/cm^2 /hr | about 2 times | C[C@]12CC[C@@H]3c4ccc(O)cc4CC[C@H]3[C@@H]1CC[C@@H]2O [Crystal X, estra-1, 3, 5(10)-triene-3, 17β-diol] | increased thermodynamic activity with respect to E2-HH | – | – |
| 0.080 μg/cm^2 /hr | 0.139 μg/cm^2 /hr | 0.142 μg/cm^2 /hr | 0.146 μg/cm^2 /hr | 0.14 μg/cm^2 /hr | – | C[C@]12CC[C@@H]3c4ccc(O)cc4CC[C@H]3[C@@H]1CC[C@@H]2O [E2-HH] | – | – | – |
| – | – | – | – | – | – | C[C@]12CC[C@@H]3c4ccc(O)cc4CC[C@H]3[C@@H]1CC[C@@H]2O [estradiol, estra-1, 3, 5(10)-triene-3, 17β-diol] | – | about 30 ng/L | approximately 40 ng/L |
